The source of these data is patent US20230141887A1, “CRYSTAL FORM OF DIAZASPIROPYRAN COMPOUND” (MEDSHINE DISCOVERY INC., priority 2020, published 2023).

Usually Kd stands for the equilibrium constant for the complex coming apart. A higher Kd goes with a looser complex.

Test [1] addresses T1, FLT3(D835V) (Homo sapiens, UniProt P36888, D835V).
T1 sequence (P36888 27-993 D835V): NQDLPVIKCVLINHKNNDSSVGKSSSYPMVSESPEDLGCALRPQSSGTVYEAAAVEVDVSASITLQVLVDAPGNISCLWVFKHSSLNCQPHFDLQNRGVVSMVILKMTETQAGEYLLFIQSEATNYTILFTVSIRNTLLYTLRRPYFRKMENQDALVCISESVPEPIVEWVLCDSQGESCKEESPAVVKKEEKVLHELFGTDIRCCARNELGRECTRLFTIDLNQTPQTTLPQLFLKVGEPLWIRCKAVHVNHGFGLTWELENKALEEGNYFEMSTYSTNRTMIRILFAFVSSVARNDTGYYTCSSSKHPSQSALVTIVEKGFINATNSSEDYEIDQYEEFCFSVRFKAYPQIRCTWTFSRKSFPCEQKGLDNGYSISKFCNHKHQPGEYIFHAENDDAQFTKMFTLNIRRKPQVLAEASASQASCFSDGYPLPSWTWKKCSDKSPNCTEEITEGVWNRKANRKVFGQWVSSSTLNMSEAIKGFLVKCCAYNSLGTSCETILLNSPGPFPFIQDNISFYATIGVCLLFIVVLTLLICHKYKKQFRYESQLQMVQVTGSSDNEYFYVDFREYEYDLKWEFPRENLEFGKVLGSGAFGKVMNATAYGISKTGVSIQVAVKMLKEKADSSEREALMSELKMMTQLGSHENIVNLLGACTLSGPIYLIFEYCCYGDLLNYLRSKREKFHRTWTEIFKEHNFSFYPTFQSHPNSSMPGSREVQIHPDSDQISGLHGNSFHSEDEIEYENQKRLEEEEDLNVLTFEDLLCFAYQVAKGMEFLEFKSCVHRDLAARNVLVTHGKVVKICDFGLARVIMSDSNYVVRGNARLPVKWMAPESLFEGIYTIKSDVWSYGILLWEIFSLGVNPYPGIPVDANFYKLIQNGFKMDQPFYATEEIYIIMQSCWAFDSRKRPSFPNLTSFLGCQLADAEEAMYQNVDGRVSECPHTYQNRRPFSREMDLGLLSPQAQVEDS
The format is binding.

Test [2] addresses T2, FLT3(D835H) (Homo sapiens, UniProt P36888, D835H).
T2 sequence (P36888 27-993 D835H): T1 sequence (P36888 27-993 D835V) with V809H
The format is binding.

Changes are numbered by the printed parent chain.

For the compound `CCc1nc(C(N)=O)c(Nc2ccc(N3CCC4(CCN(C)CC4)CC3)c(C)c2)nc1NC1CCOCC1.O=C(O)C(F)(F)F`, the results for the Kd in test [1] and in test [2] were 0.23 nM and 2.3 nM, respectively.
